Laboratory results published in patent publication EP3431468B1, “USE OF ADIPONECTIN RECEPTOR AGONISTS IN TREATING DEPRESSION, ANXIETY AND NEUROINFLAMMATION” (CENTRE NATIONAL DE LA RECHERCHE SCIENTIFIQUE, priority 2017, dated 2019).

Assays:
[1] = system: corticosterone-treated mice; test: Sucrose preference test, chronic administration; format: in vivo; settings: chronic 1mg/kg ip daily
Experimental: (§1) Three well-established mouse models of depression-like behavior have been used in the present study namely i- the long-term corticosterone treatment in the drinking water (David, Samuels et al. 2009), ii- the peripheral administration of LPS (O'Connor, Lawson et al. 2009) iii- the ApN^-/- mice (Liu, Guo et al. 2012). For chronic AdipoRon treatment, the experimental protocol was as followed: • i- Five weeks old male mice (five/cage) received corticosterone (35mg/L dissolved in tap water containing 4 g/L CD) or vehicle alone ad libitum for during 7 consecutive weeks (David, Samuels et al. 2009). Corticosterone and vehicle solutions were changed every 3 days to prevent possible degradation. […]
(§2) All behavioral testing were conducted during the light phase (between 09:00 and 14:00 am) in compliance with the Institutional Animal Care and Use Committee of the University of Nice-Sophia Antipolis (permission number 010344.01 from the French "Ministère de l'Enseignement Supérieur et de la Recherche" granted to Dr. Joëlle Chabry). • Forced Swimming test (FST) - Mice were placed an inescapable transparent tank (20cm diameter, 30cm deep) filled with water (23°C ± 0.5) for six minutes as previously described by Porsolt et al. (1977). […] To initiate testing, mice were placed into the light side and activity was recorded for 5 minutes. […]

[2] = system: corticosterone-treated mice; test: Forced Swimming test (FST), chronic administration; format: in vivo; settings: chronic 1mg/kg ip daily
Experimental: as §1, §2

[3] = system: corticosterone-treated mice; test: Light & Dark test (L&D), chronic administration; format: in vivo; settings: chronic 1mg/kg ip daily
Experimental: as §1, §2

[4] = system: corticosterone-treated mice; test: Learned Helplessness (LH), chronic administration; format: in vivo; settings: chronic 1mg/kg ip daily
Experimental: as §1, §2

[5] = system: presumed serotoninergic neurons; test: Whole-cell patch-clamp recordings on brain slices, voltage clamp; format: cell-based, mouse
serotonin pathway = test: 5-HT and 5-HIAA levels in dorsal raphe nucleus; format: in vivo; settings: corticosterone-exposed mice, chronic AdipoRon
AdipoR2 = target: T1, AdipoR2 (Homo sapiens, UniProt Q86V24); settings: Okada-Iwabu, Yamauchi et al. 2013; cited from earlier work
T1 sequence (Q86V24 1-386): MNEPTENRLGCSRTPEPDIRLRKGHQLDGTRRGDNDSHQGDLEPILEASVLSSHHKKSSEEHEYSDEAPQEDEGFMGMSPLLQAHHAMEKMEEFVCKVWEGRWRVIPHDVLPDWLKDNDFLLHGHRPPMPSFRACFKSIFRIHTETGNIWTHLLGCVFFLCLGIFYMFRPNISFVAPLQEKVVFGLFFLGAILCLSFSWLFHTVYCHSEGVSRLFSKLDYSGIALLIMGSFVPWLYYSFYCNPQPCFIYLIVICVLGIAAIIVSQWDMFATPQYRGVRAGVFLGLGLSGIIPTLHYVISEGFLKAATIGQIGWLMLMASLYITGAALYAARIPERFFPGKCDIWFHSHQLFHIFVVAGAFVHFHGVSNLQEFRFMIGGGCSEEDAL

[6] = system: corticosterone-treated mice; test: Social interaction test, chronic administration; format: in vivo; settings: chronic 1mg/kg ip daily
Experimental: as §1, §2

[7] = vehicle-treated mice (no corticosterone)

In the case of O=C(COc1ccc(C(=O)c2ccccc2)cc1)NC1CCN(Cc2ccccc2)CC1 [AdipoRon, 2-(4-Benzoylphenoxy)-N-[1-(phenylmethyl)-4-piperidinyl]-acetamide], the “sucrose preference (anhedonia)” value ([1]; corticosterone-treated mice) is reported as “reversed the effect of corticosterone”, the “sucrose preference (anhedonia)” value [1, 7] is reported as “no significant effect” and the “immobility duration in the FST (resignation)” value ([2]; corticosterone-treated mice) is reported as “reversed the effect of corticosterone”. The “immobility duration in the FST (resignation)” value [2, 7] was “no significant effect”, the “time spent in the aversive light chamber (anxiety behavior)” value ([3]; corticosterone-treated mice) was “reversed the anxiety phenotype” and the “time spent in the aversive light chamber (anxiety behavior)” value [3, 7] was “without effect”. The “resignation-like behavior in the LH test (latency, failures to escape)” value ([4]; corticosterone-treated mice) was “reversed the effect of corticosterone”, the “resignation-like behavior in the LH test (latency, failures to escape)” value [4, 7] was “no significant effect” and the “effect of AdipoRon on current and membrane conductance” value ([5]; CsCl internal solution instead of KCl solution) was “blocked”. The membrane conductance ([5]; holding potential of -60 mV, KCl internal solution, 10 µM AdipoRon) was “decrease in membrane conductance”, the induced current ([5]; holding potential of -60 mV, KCl internal solution, n=9/9 presumed serotoninergic neurons, N=5 mice, 10 µM AdipoRon) was “small inward current” and the 5-HT level (serotonin pathway) was “without modifying the 5-HT level”. The “level of 5-HIAA” value (serotonin pathway) was “increased the level of 5-HIAA”, the “ratio 5-HIAA/5-HT” value (serotonin pathway) was “threefold increase” and the “binding to adiponectin receptor” value (AdipoR2) was “bind”. The social interactions ([6]; corticosterone-treated mice) was “reversed the effect of corticosterone” and the social interactions [6, 7] was “no significant effect”.
